From ChEMBL document CHEMBL1857833, “Screening and optimization of specific chemical series against human African Trypanosomiasis (HAT)”
≈ marks a conversion by molar mass, not a printed value. Where “and” joins values, the source holds several entries; their conditions need not be identical. Equal entries are not always repeated.

How the values were obtained:
[1] = (§1) DNDI: Cytotoxicity against L929 mouse fibroblasts, 72 hour.; format: toxicity, cell-based; conditions: mouse, L929 mouse fibroblasts
Trypanosoma brucei [2] = assay: DNDI: Inhibition of Human African Trypanosomiasis, SBRI 427, in vitro; format: functional, organism-based
[3] = DNDI: Lipophilicity measured in Chromatographic hydrophobicity index (CHI) assay, pH 7.4; format: physicochemical; conditions: buffer
[4] = DNDI: half-life in mouse S9 microsomes at a concentration of 1uM; format: ADME, subcellular, Liver, S9 fraction
[5] = DNDI: half-life in mouse S9 microsomes at a concentration of 10uM; format: ADME, subcellular, Liver, S9 fraction
[6] = DNDI: Solubility in phosphate buffered saline at pH7.4 measured by nephelometry at room temperature (NEPH-RT); format: physicochemical; conditions: pH 7.4
MDR1 (ABCB1) [7] = biological target: T1, MDR1 (ABCB1) (Homo sapiens, UniProt P08183); assay: DNDI: % of compound recovered from apical to basolateral permeability assay in MDCK cells transfected with human MDR1 after 60 mins at a concentration of 3uM; format: ADME, cell-based, Canis lupus familiaris; conditions: dog
T1 sequence (P08183 whole entry): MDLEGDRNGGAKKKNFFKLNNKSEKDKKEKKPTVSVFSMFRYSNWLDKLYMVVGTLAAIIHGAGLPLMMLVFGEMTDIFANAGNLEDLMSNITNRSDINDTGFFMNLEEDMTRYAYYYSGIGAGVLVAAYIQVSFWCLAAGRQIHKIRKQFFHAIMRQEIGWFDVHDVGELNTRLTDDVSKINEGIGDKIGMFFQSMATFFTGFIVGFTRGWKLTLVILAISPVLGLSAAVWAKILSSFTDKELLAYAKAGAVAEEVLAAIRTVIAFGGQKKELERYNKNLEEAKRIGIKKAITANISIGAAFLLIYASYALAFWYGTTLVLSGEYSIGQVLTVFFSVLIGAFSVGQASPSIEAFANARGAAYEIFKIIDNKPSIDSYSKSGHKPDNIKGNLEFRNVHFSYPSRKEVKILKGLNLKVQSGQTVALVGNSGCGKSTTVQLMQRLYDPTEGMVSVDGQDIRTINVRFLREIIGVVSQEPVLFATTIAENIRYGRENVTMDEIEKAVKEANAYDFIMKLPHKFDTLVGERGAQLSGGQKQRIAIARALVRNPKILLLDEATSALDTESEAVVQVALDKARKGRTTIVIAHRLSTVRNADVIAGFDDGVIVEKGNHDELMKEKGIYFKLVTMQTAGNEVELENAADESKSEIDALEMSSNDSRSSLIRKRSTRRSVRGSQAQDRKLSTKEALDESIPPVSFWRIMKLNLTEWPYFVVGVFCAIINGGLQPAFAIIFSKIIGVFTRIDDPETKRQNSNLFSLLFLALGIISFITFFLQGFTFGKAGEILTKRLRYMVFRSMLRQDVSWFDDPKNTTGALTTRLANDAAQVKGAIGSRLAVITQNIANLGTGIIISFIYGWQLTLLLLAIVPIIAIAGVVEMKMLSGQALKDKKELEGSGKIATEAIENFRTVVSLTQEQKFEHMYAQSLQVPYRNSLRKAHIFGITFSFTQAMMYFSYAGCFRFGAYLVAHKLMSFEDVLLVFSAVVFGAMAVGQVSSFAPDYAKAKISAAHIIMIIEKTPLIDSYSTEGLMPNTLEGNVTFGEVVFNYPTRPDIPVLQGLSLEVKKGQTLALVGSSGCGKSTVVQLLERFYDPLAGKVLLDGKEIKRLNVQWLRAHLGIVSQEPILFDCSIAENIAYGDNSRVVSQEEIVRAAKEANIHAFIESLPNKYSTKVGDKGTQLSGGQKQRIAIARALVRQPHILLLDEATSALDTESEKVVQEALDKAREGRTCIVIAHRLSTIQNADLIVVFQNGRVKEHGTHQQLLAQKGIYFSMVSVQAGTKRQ

MDR1 (ABCB1) [8] = biological target: T1, MDR1 (ABCB1); assay: DNDI: Apparent permeability from apical to basolateral side of the MDCK cell transfected with human MDR1after 60 mins at a concentration of 3uM; format: ADME, cell-based, Canis lupus familiaris; conditions: dog, MDCK-MDR1
MDR1 (ABCB1) [9] = biological target: T1, MDR1 (ABCB1); assay: DNDI: % of compound recovered from apical to basolateral permeability assay in MDCK cells transfected with human MDR1 after 60 mins at a concentration of 3uM in the presence of GF120918; format: ADME, cell-based, Canis lupus familiaris; conditions: dog, MDCK-MDR1, with GF120918 (concentration not stated)
MDR1 (ABCB1) [10] = biological target: T1, MDR1 (ABCB1); assay: DNDI: Efflux ratio for permeability from basolateral to apical side to apical to basolateral side of MDCK cells transfected with human MDR1; format: ADME, cell-based, Canis lupus familiaris; conditions: dog
[11] = DNDI: Cytotoxicity against L929 mouse fibroblasts, CYTO-SP, 24 hour; format: toxicity, cell-based; conditions: mouse, L929 mouse fibroblasts
L929 = assay: as §1; format: toxicity, cell-based; conditions: l929
[12] = DNDI: half life in human liver microsomes at a concentration of 10uM; format: ADME, Microsome
[13] = DNDI: in vitro intrinsic clearance in human liver microsomes at a concentration of 10uM; format: ADME, Microsome
[14] = DNDI: in vitro intrinsic clearance in mouse liver microsomes at a concentration of 10uM; format: ADME, Microsome; conditions: read-out: CLint in vitro
[15] = DNDI: half life in mouse liver microsomes at a concentration of 10uM; format: ADME, Microsome
[16] = DNDI: Solubility in phosphate buffered saline at pH7.4 measured by optical density (turbidimetry) at room temperature (OD-RT); format: physicochemical; conditions: pH 7.4
[17] = mouse, microsomes, 1 µM
Description: DNDI: in vitro intrinsic clearance in mouse liver microsomes at a concentration of 1uM

in vitro = conditions: mouse, t (1 / 2)
Description: DNDI: half life in mouse liver microsomes at a concentration of 1uM

Trypanosoma cruzi = assay: DNDI: Inhibition of Chagas Disease parasite Trypanosoma cruzi (Tulahuen LacZ, Clone C4), in vitro.; format: functional, organism-based
[18] = DNDI: Cytotoxicity against L-6 rat myoblasts from skeletal muscle cells; format: toxicity, cell-based, L6; conditions: L-6 rat skeletal muscle myoblasts
[19] = tested on: Trypanosoma brucei rhodesiense; assay: DNDI: Inhibition of Human African Trypanosomiasis (HAT), STIB 900, in vitro; format: functional, organism-based
Leishmania donovani = assay: DNDI: Inhibition of formation of Leishmania donovani (strain MHOM/ET/67/L82) axenic amastigotes, in vitro.; format: functional, organism-based
Plasmodium falciparum = assay: DNDI: Inhibition of the malaria parasite Plasmodium falciparum, in vitro; format: functional, organism-based; conditions: K1
MDR1 (ABCB1) [20] = biological target: T1, MDR1 (ABCB1); assay: DNDI: % of compound recovered from apical to basolateral permeability assay in MDCK cells transfected with human MDR1; format: ADME, cell-based, Canis lupus familiaris; conditions: dog
MDR1 (ABCB1) [21] = biological target: T1, MDR1 (ABCB1); assay: DNDI: Apparent permeability from apical to basolateral side of the MDCK cell transfected with human MDR1; format: ADME, cell-based, Canis lupus familiaris; conditions: dog
MDR1 (ABCB1) [22] = biological target: T1, MDR1 (ABCB1); assay: DNDI: Apparent permeability from basolateral to apical side of the MDCK cell transfected with human MDR1 after 60 mins at a concentration of 3uM; format: ADME, cell-based, Canis lupus familiaris; conditions: dog
MDR1 (ABCB1) [23] = biological target: T1, MDR1 (ABCB1); assay: DNDI: % of compound recovered from basolateral to apical permeability assay in MDCK cells transfected with human MDR1; format: ADME, cell-based, Canis lupus familiaris; conditions: dog
Trypanosoma brucei [24] = assay: DNDI: Inhibition of Human African Trypanosomiasis, Cross 22, in vitro; format: functional, organism-based
Trypanosoma brucei [25] = assay: DNDI: Inhibition of Human African Trypanosomiasis, EATRO 110, in vitro; format: functional, organism-based
[26] = Trypanosoma brucei, SBRI 427, read-out: IC50
[27] = MDCK-MDR1, read-out: Calculated Ratio

IC50 (Trypanosoma brucei [2]; [26]) [µg/mL] | chromatographic logD [3] | half-life at 1 µM [4] [h] | solubility kinetic [6] [µM] | recovery at 1 h, 3 µM (MDR1 (ABCB1) [7]) [%] | Papp A→B at 1 h, 3 µM (MDR1 (ABCB1) [8]) [×10⁻⁶ cm/s] | recovery at 1 h, 3 µM (MDR1 (ABCB1) [9]) [%] | microsomal CLint at 10 µM [14] [µL/min/mg] | half-life at 10 µM [15] [h] | solubility kinetic [16] [µM] | CLint in vitro [17] [µL/min/mg] | Structure (SMILES) | IC50 at 72 h [1] [µg/mL] | IC50 at 24 h [11] [µg/mL] | IC50 (L929) [µg/mL] | further results
0.422 (≈ 1.13 µM) | 4.98 | 1.28 | 3 (≈ 1.12 µg/mL) | – | – | – | – | – | – | – | Fc1ccc(-c2cc3nc(-c4ccccc4)cc(N4CCNCC4)n3n2)cc1 | 0.73 (≈ 1.95 µM) | – | – | half-life at 10 µM [5]: 3.68 h
1.17 (≈ 3.76 µM) | 3.92 | – | – | – | – | – | 275 | 0.183 | 63 (≈ 19.6 µg/mL) | 423 | O/N=C(/NC1CCCCC1)c1cccnc1Oc1ccccc1 | > 10 | > 50 | – | IC50 (Trypanosoma cruzi): > 30 µg/mL; IC50 [18]: 43.9 µg/mL (≈ 141 µM); IC50 [19]: 27.6 µg/mL (≈ 88.6 µM); IC50 (Leishmania donovani): 44 µg/mL (≈ 141 µM); IC50 (Plasmodium falciparum): 4.2 µg/mL (≈ 13.5 µM); half-life at 10 µM [12]: 5.23 h; CLint in vitro [13]: 9 µL/min/mg; recovery (MDR1 (ABCB1) [20]): 66%; Papp A→B (MDR1 (ABCB1) [21]): 30.9 ×10⁻⁶ cm/s; Papp B→A at 1 h, 3 µM (MDR1 (ABCB1) [22]): 51.4 ×10⁻⁶ cm/s; recovery (MDR1 (ABCB1) [23]): 83%; efflux ratio (MDR1 (ABCB1) [10]; read-out: B-A/A-B): 1.7; half-life at 1 µM (in vitro; microsomes): 0.0333 h
1.18 (≈ 3.33 µM) | 5.5 | – | – | – | – | – | 35 | 1.35 | 0.8 (≈ 0.284 µg/mL) | 86 | CCOc1ccc(-c2nc(CNC[C@@H]3CC[C@H]4C[C@@H]3C4(C)C)co2)cc1 | 3.26 (≈ 9.2 µM) | 45.2 (≈ 128 µM) | – | IC50 (Trypanosoma brucei [24]): 1.57 µg/mL (≈ 4.43 µM); IC50 (Trypanosoma brucei [25]): 0.71 µg/mL (≈ 2 µM); IC50 (Trypanosoma brucei [2]): 1.47 µg/mL and 1.38 µg/mL; recovery (MDR1 (ABCB1) [20]): 21%; Papp A→B (MDR1 (ABCB1) [21]): 8.16 ×10⁻⁶ cm/s; Papp B→A at 1 h, 3 µM (MDR1 (ABCB1) [22]): 6.74 ×10⁻⁶ cm/s; recovery (MDR1 (ABCB1) [23]): 42%; efflux ratio (MDR1 (ABCB1) [10]; read-out: B-A/A-B): 0.8; half-life at 1 µM (in vitro; liver microsomes): 0.167 h

The remaining lines, values behind:

Structure (SMILES) | IC50 (Trypanosoma brucei [2]; [26]) [µg/mL] | chromatographic logD [3] | half-life at 1 µM [4] [h] | solubility kinetic [6] [µM] | recovery at 1 h, 3 µM (MDR1 (ABCB1) [7]) [%] | Papp A→B at 1 h, 3 µM (MDR1 (ABCB1) [8]) [×10⁻⁶ cm/s] | recovery at 1 h, 3 µM (MDR1 (ABCB1) [9]) [%] | microsomal CLint at 10 µM [14] [µL/min/mg] | half-life at 10 µM [15] [h] | solubility kinetic [16] [µM] | CLint in vitro [17] [µL/min/mg] | IC50 at 72 h [1] [µg/mL] | IC50 at 24 h [11] [µg/mL] | IC50 (L929) [µg/mL] | further results
Cc1cc(NCCN(C)C)n2nc(-c3cccc(F)c3)cc2n1 | > 5 | 4.09 | 0.317 | 100 (≈ 31.3 µg/mL) | 97 | 46.6 | 108 | – | – | – | – | > 10 | – | – | efflux ratio (MDR1 (ABCB1) [10]; [27]): 0.14
Cc1cc(N2CCNCC2)n2nc(-c3cccc(F)c3)cc2n1 | > 5 | 3.44 | 0.762 | 50 (≈ 15.6 µg/mL) | 70.4 | 45.2 | 63.6 | – | – | – | – | 9.09 (≈ 29.2 µM) | – | – | half-life at 10 µM [5]: 3.57 h
CCCCCC(C)NCc1coc(-c2ccc(OC(C)C)cc2)n1 (configuration not stated) | 1.07 (≈ 3.24 µM) | 4.56 | – | – | – | – | – | 36 | 1.35 | 12.5 (≈ 4.13 µg/mL) | 24 | 2.58 (≈ 7.81 µM) | > 50 | 3.42 (≈ 10.3 µM) | half-life at 10 µM [12]: 1.3 h; CLint in vitro [13]: 37 µL/min/mg; half-life at 1 µM (in vitro; microsomes): 0.583 h
CN(C)CCNc1cc(-c2ccccc2)nc2cc(-c3ccc(F)cc3)nn12 | 1.53 (≈ 4.08 µM) | 5.2 | > 5.83 | 25 (≈ 9.39 µg/mL) | 100 | 8.84 | 70 | – | – | – | – | > 10 | – | – | –
CCCCc1ccc(-c2nc(CNCC(C)(C)CN)co2)cc1 | 0.39 (≈ 1.24 µM) | – | – | – | – | – | – | – | – | – | – | 1.81 (≈ 5.74 µM) | – | 2.96 (≈ 9.38 µM) | –
Cc1cc(NCCCN2CCOCC2)n2nc(-c3cccc(F)c3)cc2n1 | > 5 | 4.44 | 0.583 | 25 (≈ 9.24 µg/mL) | 91 | 36.1 | 85 | – | – | – | – | > 10 | – | – | efflux ratio (MDR1 (ABCB1) [10]; [27]): 0.12
CCCCc1ccc(-c2nc(CNCC(O)CN)co2)cc1 (configuration not stated) | 0.6 (≈ 1.98 µM) | – | – | – | – | – | – | – | – | – | – | 2.91 (≈ 9.59 µM) | – | 3.31 (≈ 10.9 µM) | –
